Reference: patent US20020032236A1, “Method for the treatment of dermatological diseases by using nimesulide” (priority 2000, published 2002)

Tested on: pustular psoriasis, gangrenous pyoderma, capillitium erosive dermatitis and Dick & Syme syndrome
Settings: 200 mg/day for 3 weeks, followed by 100 mg/day for three weeks
Procedure: Double blind clinical studies were carried out on patients suffering from pustular psoriasis, gangrenous pyoderma, capillitium erosive dermatitis and Dick & Syme syndrome. Patients were treated with Nimesulide, at a dosage of 200 mg/day for 3 weeks, followed by 100 mg/day for three weeks.
At the end of the treatment, the following parameters were evaluated: number of the skin lesions extent of the skin lesions relief from pain at the nodule sites

[1] = patients, at the end of the treatment

For CS(=O)(=O)Nc1ccc([N+](=O)[O-])cc1Oc1ccccc1 [Nimesulide], the “remission of the "disease"” value (in some cases) was “complete remission”, the side effects (patients) was “no side effects were observed” and the “effectiveness in the treatment of the "diseases"” value [1] was “statistically effective”. For the same molecule, the “extent of the skin lesions” value [1] was “regression of the skin lesions”, the “number of the skin lesions” value [1] was “regression of the skin lesions” and the “relief from pain at the nodule sites” value [1] was “almost complete disappearance of pain”.
